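Five concentrations, 48 hours, 96-well plates. The concentration for full growth arrest is given as TGI.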 Where a SMILES comes first, the peptide text is derived from it. [ ]: non-standard residue; d: D form. The star is where a group is joined. Bn2Val = CC(C)[C@@H](C(=O)*)N(Cc1ccccc1)Cc1ccccc1; NHPiperonyl = c1cc2c(cc1CN*)OCO2; NMeV = CN[C@H](C(=O)O)C(C)C; dNMeA = CN[C@H](C)C(=O)O
Columns and labels:
Test in all cases: NCI tumour cell line growth inhibition, 48 h
SK-MEL-5 melanoma = test system: SK-MEL-5 melanoma
SK-MEL-2 melanoma = test system: SK-MEL-2 melanoma
HS 578T breast = test system: HS 578T breast
UO-31 renal = test system: UO-31 renal
A549 NSCLC = test system: A549 NSCLC
HOP-92 NSCLC = test system: HOP-92 NSCLC
SF-295 CNS = test system: SF-295 CNS
SNB-19 CNS = test system: SNB-19 CNS
SF-539 CNS = test system: SF-539 CNS
SR leukemia = test system: SR leukemia
SNB-75 CNS = test system: SNB-75 CNS
RXF 393 renal = test system: RXF 393 renal
SN12C renal = test system: SN12C renal
NCI/ADR-RES ovarian = test system: NCI/ADR-RES ovarian
UACC-257 melanoma = test system: UACC-257 melanoma
IGROV1 ovarian = test system: IGROV1 ovarian
EKVX NSCLC = test system: EKVX NSCLC
OVCAR-8 ovarian = test system: OVCAR-8 ovarian
MCF7 breast = test system: MCF7 breast
T-47D breast = test system: T-47D breast

Measured: TGI

c1ccc(C2(c3ccccc3)S/C(=C3/SC(c4ccccc4)(c4ccccc4)c4ccccc43)c3ccccc32)cc1
not listed: MCF7 breast | T-47D breast
> 100 µM: all other assays above

O=C(c1ccc(-c2ccccc2)cc1)N(Cc1cccnc1)C(=S)N(Cc1cccnc1)C(=O)c1ccc(-c2ccccc2)cc1
not listed: SR leukemia | SNB-75 CNS | RXF 393 renal | IGROV1 ovarian | T-47D breast
> 100 µM: all other assays above

O=C1OCCC12CN(Cc1ccccc1)N=N2 (stereo unspecified)
74.6 µM: SR leukemia
not listed: HS 578T breast | SNB-75 CNS | UACC-257 melanoma | IGROV1 ovarian | EKVX NSCLC
> 100 µM: all other assays above

Nc1c(C(=O)c2ccc(Cl)cc2)[nH]c(Nc2ccc(Cl)cc2)c1C(=S)Nc1ccccc1
13.3 µM: NCI/ADR-RES ovarian
5.87 µM: SF-295 CNS
22.5 µM: SN12C renal
17.3 µM: IGROV1 ovarian
19.5 µM: EKVX NSCLC
22.2 µM: HOP-92 NSCLC
> 100 µM: T-47D breast
7.41 µM: SR leukemia
18.4 µM: SF-539 CNS
31.8 µM: UACC-257 melanoma
25.8 µM: SK-MEL-2 melanoma
11 µM: OVCAR-8 ovarian
21.6 µM: MCF7 breast
13.9 µM: A549 NSCLC
7.45 µM: RXF 393 renal
6.6 µM: SNB-75 CNS
21.8 µM: SNB-19 CNS
15.1 µM: UO-31 renal

O=C(N/C(=C\NC1=NCCS1)C(=O)N1CSC[C@@H]1C(=O)O)c1ccccc1
not listed: SK-MEL-2 melanoma | HS 578T breast | SR leukemia | IGROV1 ovarian
> 100 µM: all other assays above

CC1(C)CC(=O)c2c([nH]c(=S)c(C#N)c2-c2ccc(Br)cc2)C1
51.7 µM: SR leukemia
52.5 µM: HOP-92 NSCLC
76.6 µM: SK-MEL-2 melanoma
not listed: T-47D breast
> 100 µM: all other assays above

CC(=O)OC1COC(n2c(O)c(N=Nc3ccc([N+](=O)[O-])cc3)c3cc(Br)c([N+](=O)[O-])cc32)C(OC(C)=O)C1OC(C)=O (stereo unspecified)
67.1 µM: SF-295 CNS
89.8 µM: RXF 393 renal
78 µM: HOP-92 NSCLC
70.3 µM: IGROV1 ovarian
not listed: HS 578T breast | UO-31 renal | SNB-75 CNS | NCI/ADR-RES ovarian | MCF7 breast | T-47D breast
> 100 µM: all other assays above

COc1c(N2CCCCC2)c2c(=O)c3ccccc3oc2c2cc(C)oc12
84.8 µM: SN12C renal
61.6 µM: SK-MEL-2 melanoma
79.6 µM: HS 578T breast
70 µM: RXF 393 renal
89.1 µM: EKVX NSCLC
40.7 µM: SK-MEL-5 melanoma
55.6 µM: HOP-92 NSCLC
54 µM: UO-31 renal
42.9 µM: SNB-75 CNS
not listed: SR leukemia | IGROV1 ovarian | T-47D breast
> 100 µM: all other assays above

O=C1CSC(c2c[nH]c3ccccc23)N1c1cccc([N+](=O)[O-])c1 (stereo unspecified)
not listed: SK-MEL-2 melanoma | HS 578T breast | NCI/ADR-RES ovarian
> 100 µM: all other assays above

O=S(Nc1ccccc1)c1ccccc1Oc1ccccc1 (stereo unspecified)
35.6 µM: SF-539 CNS
19.6 µM: HS 578T breast
79.1 µM: EKVX NSCLC
12.6 µM: IGROV1 ovarian
not listed: SK-MEL-2 melanoma | HOP-92 NSCLC | T-47D breast
> 100 µM: all other assays above

CCOc1ccccc1NC(=O)CSc1nnc(Cc2ccccc2)o1
98.6 µM: UACC-257 melanoma
38.8 µM: SK-MEL-5 melanoma
63 µM: SK-MEL-2 melanoma
52 µM: UO-31 renal
53.5 µM: SF-539 CNS
54.8 µM: OVCAR-8 ovarian
> 100 µM: A549 NSCLC | SF-295 CNS | SNB-75 CNS | IGROV1 ovarian
48.7 µM: SNB-19 CNS
55.3 µM: RXF 393 renal
64.9 µM: SN12C renal

Cc1cc(N(CCC#N)CCC#N)ccc1/C=C(\NC(=O)/C=C/c1ccccc1)NC(=O)Nc1ccccc1C
63.4 µM: RXF 393 renal
62 µM: HOP-92 NSCLC
not listed: HS 578T breast | SR leukemia | SNB-75 CNS | NCI/ADR-RES ovarian | MCF7 breast | T-47D breast
> 100 µM: all other assays above

CCN1C(=O)/C(=C\c2coc3ccccc3c2=O)SC1=S
90.1 µM: SF-539 CNS
not listed: HS 578T breast | NCI/ADR-RES ovarian | MCF7 breast | T-47D breast
> 100 µM: all other assays above

Nc1cc(N2CCOCC2)nc(=O)n1-c1ccccc1
not listed: HS 578T breast | RXF 393 renal
> 100 µM: all other assays above

CN(C)CCNC(=O)c1ccccc1Nc1c(Cl)cccc1Cl
26.7 µM: SF-539 CNS
9.52 µM: SNB-75 CNS
10.8 µM: RXF 393 renal
36.3 µM: IGROV1 ovarian
25.3 µM: A549 NSCLC
27.8 µM: OVCAR-8 ovarian
30.9 µM: SR leukemia
28.7 µM: SN12C renal
29.9 µM: SNB-19 CNS
17.2 µM: UO-31 renal
18.5 µM: UACC-257 melanoma
21.6 µM: EKVX NSCLC
9.96 µM: SK-MEL-5 melanoma

S=C(Nc1ccc(Cl)cc1)c1ccc(CN2CCCCC2)s1
31.9 µM: UO-31 renal
19.5 µM: SR leukemia
61.9 µM: MCF7 breast
35.1 µM: EKVX NSCLC
> 100 µM: SK-MEL-2 melanoma | HS 578T breast | A549 NSCLC | SF-539 CNS | NCI/ADR-RES ovarian | UACC-257 melanoma
8.82 µM: IGROV1 ovarian
27.1 µM: OVCAR-8 ovarian
15.1 µM: SK-MEL-5 melanoma
39.2 µM: SN12C renal

CC(C)NC1CCCCC2c3cc(F)ccc3[C@]12O (stereo partly specified)
not listed: HS 578T breast | HOP-92 NSCLC | SR leukemia | NCI/ADR-RES ovarian | MCF7 breast | T-47D breast
> 100 µM: all other assays above

CC1(OCc2ccccc2)C(=O)N2C1N(C(=O)OCc1ccccc1)CC2(C)C (stereo unspecified)
33.5 µM: SK-MEL-5 melanoma
95 µM: SR leukemia
not listed: HS 578T breast | HOP-92 NSCLC | NCI/ADR-RES ovarian | MCF7 breast | T-47D breast
> 100 µM: all other assays above

CC(/C=C/c1ccccc1)=N\N=C(C)\C=C\c1ccccc1
> 100 µM: SK-MEL-5 melanoma | SK-MEL-2 melanoma | A549 NSCLC | SF-295 CNS | SR leukemia | SNB-75 CNS | SN12C renal | UACC-257 melanoma | IGROV1 ovarian | EKVX NSCLC | OVCAR-8 ovarian

[N-]=[N+]=CC(=O)OC1CCc2ccccc21 (stereo unspecified)
29 µM: UO-31 renal
not listed: HS 578T breast | A549 NSCLC | SF-539 CNS | SNB-75 CNS | NCI/ADR-RES ovarian | OVCAR-8 ovarian | T-47D breast
> 100 µM: all other assays above

COc1ccc2c(c1)CC[C@@H]1C2CC[C@]2(C)C(=N\O)/C(=N/O)CC12 (stereo partly specified)
36.5 µM: SN12C renal
10 µM: IGROV1 ovarian
25.7 µM: SK-MEL-5 melanoma
26.5 µM: UO-31 renal
33.7 µM: OVCAR-8 ovarian
35.1 µM: SF-539 CNS
30.6 µM: HOP-92 NSCLC
26.9 µM: SK-MEL-2 melanoma
32.9 µM: SNB-19 CNS | UACC-257 melanoma
38.9 µM: EKVX NSCLC
24.7 µM: A549 NSCLC
23.9 µM: SF-295 CNS

Cc1ccc([N+]2=NC(c3ccc([N+](=O)[O-])cc3)=NN(c3ccccc3)C2)cc1
not listed: SK-MEL-2 melanoma | HS 578T breast | HOP-92 NSCLC | SF-539 CNS | SNB-75 CNS | NCI/ADR-RES ovarian | MCF7 breast | T-47D breast
> 100 µM: all other assays above

CC[C@]1(Cc2ccc(OC)c(OC)c2)C=[N+]([O-])O[C@H](OC2CCCCC2c2ccccc2)[C@@H]1OC(C)=O (stereo partly specified)
94.1 µM: RXF 393 renal
91.1 µM: SR leukemia
not listed: HS 578T breast | SF-539 CNS
> 100 µM: all other assays above

O=C1c2ccccc2-c2nc(-c3cccs3)cc3c2c1nc1ccccc13
63.5 µM: A549 NSCLC
29.2 µM: MCF7 breast
92.5 µM: IGROV1 ovarian
90 µM: HS 578T breast
32 µM: SK-MEL-2 melanoma
34.5 µM: SR leukemia
37.3 µM: UACC-257 melanoma
not listed: SK-MEL-5 melanoma | RXF 393 renal | T-47D breast
> 100 µM: all other assays above

CCOc1ccc(NC(=O)/C(Cc2nc3ccccc3[nH]c2=O)=N\O)cc1
not listed: HS 578T breast | SF-295 CNS | SR leukemia | SN12C renal | NCI/ADR-RES ovarian | MCF7 breast | T-47D breast
> 100 µM: all other assays above

COc1ccc2c(c1)OCC1=C2Oc2ccccc2C1
28.3 µM: SK-MEL-5 melanoma
42.5 µM: SNB-75 CNS
87.6 µM: UACC-257 melanoma
95.7 µM: SF-539 CNS
77.5 µM: SK-MEL-2 melanoma
not listed: HS 578T breast | HOP-92 NSCLC | SNB-19 CNS | RXF 393 renal | MCF7 breast
> 100 µM: all other assays above

CC(C)[C@H](NC(=O)[C@H](C(C)C)N(Cc1ccccc1)Cc1ccccc1)C(=O)N(C)[C@H](C(=O)N1CCC[C@H]1C(=O)N(C)[C@H](C)C(=O)NCc1ccc2c(c1)OCO2)C(C)C (Bn2Val-V[NMeV]P[dNMeA]-NHPiperonyl)
11.5 µM: SF-539 CNS
25.5 µM: SK-MEL-2 melanoma
7.55 µM: MCF7 breast
not listed: SK-MEL-5 melanoma | HOP-92 NSCLC | SR leukemia | SNB-75 CNS | RXF 393 renal | SN12C renal | T-47D breast
> 100 µM: all other assays above

CSC1=C(C(=O)N(COCC[Si](C)(C)C)c2ccccc2Br)CCC(C(C)(C)C)C1 (stereo unspecified)
27 µM: UO-31 renal
47.8 µM: UACC-257 melanoma
11.7 µM: SR leukemia
27.2 µM: SK-MEL-5 melanoma
34.3 µM: T-47D breast
23.1 µM: RXF 393 renal
27.8 µM: SN12C renal
31.7 µM: SK-MEL-2 melanoma
25.6 µM: SF-295 CNS
28 µM: MCF7 breast
37.8 µM: EKVX NSCLC
42.9 µM: SNB-19 CNS
45.8 µM: HOP-92 NSCLC
not listed: HS 578T breast | SF-539 CNS
> 100 µM: all other assays above

— PubChem BioAssay (NCI)
